Data: the supplement of paper PMC10331698
± gives the standard deviation of the averaged measurements.

Experiments:
Assay in all cases: level (log10 ratio to DMSO vehicle control); higher = higher biomarker level / cell amount than vehicle control
[1] = compound: C=C(C)C(=O)OCCC(F)(F)C(F)(F)C(F)(F)C(F)(F)C(F)(F)C(F)(F)F [6:2 Fluorotelomer methacrylate]; conditions: in DMSO
Description: (§1)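 BioMAP Diversity Plus panel of 12 human primary cell co-culture systems (3C, 4H, LPS, SAg, BT, BF4T, BE3C, CASM3C, HDF3CGF, KF3CT, MyoF, Mphg). Compounds were added 1 h before stimulation and left for 24 h (MyoF 48 h; BT 72 h for soluble read-outs or 6 d for IgG). Biomarkers were read by ELISA, cytotoxicity by SRB, PBMC viability and proliferation by Alamar Blue. Each well value was divided by the mean of 8 DMSO control wells on the same plate and log10 transformed; duplicate blinded samples were tested at 4 concentrations.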

[2] = compound: C=CC(=O)OCC(F)(F)C(F)(F)C(F)(F)COC(=O)C=C [1H,1H,5H,5H-Perfluoro-1,5-pentanediol diacrylate]; conditions: 6700 nM; in DMSO
Description: as §1

[3] = compound: COC(=O)C(F)(F)C(F)(F)OC(F)(C(F)(F)F)C(F)(F)OC(F)=C(F)F [Methyl perfluoro(3-(1-ethenyloxypropan-2-yloxy)propanoate)]; conditions: in DMSO
Description: as §1

[4] = compound: FC(F)(F)C(F)(F)C(F)(F)CC1CO1 [1H,1H-Heptafluorobutyl epoxide]; conditions: in DMSO
Description: as §1

[5] = compound: NC(=O)C(F)(F)C(F)(F)C(F)(F)C(F)F; conditions: in DMSO
Description: as §1

[6] = compound: NS(=O)(=O)C(F)(F)C(F)(F)C(F)(F)C(F)(F)C(F)(F)C(F)(F)F [Perfluorohexanesulfonamide]; conditions: in DMSO
Description: as §1

| Test System | level (log10) ([1]; 6700 nM) | level (log10) ([1]; 20000 nM) | level (log10) ([1]; 60000 nM) | level (log10) [2] | level (log10) ([3]; 6700 nM) | level (log10) ([3]; 20000 nM) | level (log10) ([4]; 6700 nM) | level (log10) ([4]; 20000 nM) | level (log10) ([4]; 60000 nM) | level (log10) ([5]; 6700 nM) | level (log10) ([5]; 20000 nM) | level (log10) ([5]; 60000 nM) | level (log10) ([6]; 6700 nM) | level (log10) ([6]; 20000 nM) | level (log10) ([6]; 60000 nM) |
| --- | --- | --- | --- | --- | --- | --- | --- | --- | --- | --- | --- | --- | --- | --- | --- |
| KF3CT:CD54/ICAM-1 | 0.006 ± 0.016 | -0.014 ± 0.031 | -0.0075 ± 0.005 | -0.076 ± 0.0042 | -0.025 | -0.008 ± 0.0071 | 0.003 ± 0.013 | -0.012 ± 0.0042 | -0.0105 ± 0.025 | -0.0075 ± 0.011 | -0.0255 ± 0.005 | -0.008 ± 0.0014 | -0.0235 ± 0.015 | -0.019 ± 0.0085 | -0.0285 ± 0.025 |
| 3C:CXCL9/MIG | -0.001 ± 0.0014 | 0.0025 ± 0.012 | 0.0105 ± 0.023 | -0.017 ± 0.0085 | -0.0025 ± 0.012 | -0.0005 ± 0.00071 | -0.005 ± 0.0071 | -0.0135 ± 0.0064 | -0.0035 ± 0.022 | -0.0095 ± 0.011 | -0.012 ± 0.0014 | -0.0045 ± 0.0021 | -0.0165 ± 0.005 | -0.0055 ± 0.0021 | 0.009 ± 0.0071 |
| HDF3CGF:CD54/ICAM-1 | -0.011 ± 0.0042 | 0.0035 ± 0.012 | 0.005 ± 0.0014 | -0.9415 ± 0.0078 | -0.0155 ± 0.0092 | -0.029 ± 0.025 | -0.0045 ± 0.022 | -0.0115 ± 0.04 | -0.0215 ± 0.06 | -0.0045 ± 0.0064 | 0.0045 ± 0.0035 | 0.001 ± 0.0071 | -0.005 ± 0.0028 | -0.0155 ± 0.012 | -0.0225 ± 0.005 |
| 4H:VEGFR2 | -0.047 ± 0.034 | -0.0305 ± 0.00071 | -0.0265 ± 0.039 | -0.0225 ± 0.035 | -0.008 ± 0.014 | 0.006 ± 0.034 | -0.012 ± 0.0071 | 0 ± 0.017 | 0.031 ± 0.11 | 0 ± 0.0042 | -0.006 ± 0.0099 | -0.001 ± 0.054 | -0.008 ± 0.023 | -0.023 ± 0.013 | -0.0965 ± 0.022 |
| 3C:HLA-DR | -0.0015 ± 0.0092 | -0.007 ± 0.0071 | -0.005 ± 0.0099 | -0.092 ± 0.078 | 0.002 ± 0.0014 | 0.0075 ± 0.0078 | 0.017 | 0.002 | 0.011 ± 0.0042 | -0.006 ± 0.02 | -0.002 ± 0.016 | -0.005 ± 0.014 | -0.017 ± 0.0014 | -0.0555 ± 0.00071 | -0.125 ± 0.011 |
| CASM3C:M-CSF | -0.004 ± 0.011 | 0.002 ± 0.0014 | 0.024 ± 0.021 | -0.056 ± 0.021 | -0.0075 ± 0.036 | 0.01 ± 0.025 | -0.0205 ± 0.029 | -0.015 ± 0.0042 | -0.014 ± 0.033 | -0.0485 ± 0.021 | -0.0535 ± 0.046 | 0.019 ± 0.082 | 0.009 ± 0.035 | 0.0295 ± 0.012 | 0.119 ± 0.0035 |
| CASM3C:PAI-I | -0.01 ± 0.013 | -0.0055 ± 0.0021 | 0.007 ± 0.013 | 0.002 ± 0.0042 | -0.0015 ± 0.0035 | -0.0005 ± 0.012 | -0.0045 ± 0.0092 | 0 ± 0.0057 | 0.005 ± 0.017 | -0.005 ± 0.021 | -0.003 ± 0.0085 | -0.008 ± 0.0099 | -0.0045 ± 0.011 | -0.008 ± 0.0042 | 0.004 ± 0.0071 |
| CASM3C:HLA-DR | -0.008 ± 0.042 | -0.0015 ± 0.015 | 0.0155 ± 0.011 | -0.0345 ± 0.018 | 0.0145 ± 0.015 | 0.0155 ± 0.022 | -0.014 ± 0.0099 | -0.017 ± 0.0028 | -0.0165 ± 0.016 | -0.0125 ± 0.042 | -0.0075 ± 0.016 | -0.008 ± 0.0014 | 0.002 ± 0.03 | 0 ± 0.0071 | 0.005 ± 0.0042 |
